# In patent publication US10532999B2 (priority 2012, dated 2020):
# “And” between values parts separate entries of the source, which are not always exact repeats. Identical values can stand only once. Like-named read-outs stand apart in the source and are kept apart here.
# Key:
# VEEV TC-83 = assay: microbe, parasite or virus in culture; format: cell-based; conditions: Venezuelan equine encephalitis virus, Vero 76, read-out: Assay provided VEEV CPE inhibition
# [1] = Chemical stability of ML336 with or without dithiothreitol (DTT), LCMS; conditions: for Averaged Percent ML336 Remaining after 8 h / Percent ML336 Remaining after 8 h: 10 μM in PBS pH 7.4 (1% DMSO), room temperature; for Percent ML336 Remaining after 8 h: single runs
# VEEV = conditions: read-out: Reported VEEV CPE inhibition; cited from earlier work
# CYP450 (2C9, 2C19) = conditions: noted liability, Table 2, cited from earlier work
# [2] = ML336 without nucleophile (control)
smiles,measurement,setting,value
O=C(O)Cc1ccccc1Nc1c(Cl)cccc1Cl [diclofenac sodium],IC50,VEEV TC-83,> 50 µM
NC(=O)c1ncn([C@@H]2O[C@H](CO)[C@@H](O)[C@H]2O)n1 [ribavirin],IC50,VEEV TC-83,126 µM
"CN1CCN(C)/C(=N/c2ccc([N+](=O)[O-])cc2C(=O)Nc2ccccc2)C1 [ML336, (E)-2-((1,4-dimethylpiperazin-2-ylidene)amino)-5-nitro-N-phenylbenzamide]",adducts detected by LCMS,"[1]; 50 μM DTT, sampled every hour for eight hours",no adducts were detected
same,Averaged Percent ML336 Remaining after 8 h,[1]; ML336 with 5X DTT (50 μM),98.96%
same,Percent ML336 Remaining after 8 h,[1]; ML336 with 5X DTT (50 μM),100.36% and 97.55%
same,Averaged Percent ML336 Remaining after 8 h,[1]; [2],93.92%
same,Percent ML336 Remaining after 8 h,[1]; [2],96.13% and 91.70%
COc1cc(NC(=O)Nc2cccc(CNC(=O)O[C@H]3CCOC3)c2)ccc1-c1cnco1 [VX-497],IC50,VEEV,19.2 µM
Cc1cc(Cc2cc(C)cc(C(C)(C)C)c2O)c(O)c(Cc2cc(C)cc(C(C)(C)C)c2O)c1 [antioxidant 80],IC50,VEEV TC-83,> 50 µM
same,"CYP450 (2C9, 2C19) inhibition","CYP450 (2C9, 2C19)",~3 µM
same,"CYP450 (2C9, 2C19) inhibition","CYP450 (2C9, 2C19); listed as Antioxidant 80",about 3 μM
NS(=O)(=O)c1ccc(-n2c(-c3ccccc3)nc3ccc(Br)cc3c2=O)cc1 [quinazolinone],IC50,VEEV TC-83,> 25 µM
